Here are results for five molecules from patent publication US7528235B2, “Multi-functional antibodies” (The Regents of the Univarsity of California, priority 2003, dated 2009).

One series has as its system 2D12.5. The series is described as follows: relative binding curves of 2D12.5 for Y-DOTA isomers and Y-DOTA molecules with different sidechain locations. On the set-up: species or system murine. The settings on record: for relative binding affinity, different sidechain locations: Y-DOTA molecules, FIG. 17; for relative binding affinity, Y-DOTA isomers: coordinated metal Y^3+, FIG. 16. An excerpt: FIG. 16 is a graphical display showing the relative binding curves of 2D12.5 for Y-DOTA isomers and Y-DTPA. 2D12.5 binds both the (R)- and (S)-isomers of 2-(4-nitrobenzyl)-DOTA when the coordinated metal is Y^3+ (the same behavior is expected for the other rare earths). The (S)-isomer confers Λ-helicity, while the (R)-isomer confers Δ-helicity to the acetate arms. […] Y-DOTA (no-sidearm) exists is solution as a racemic mixture of the coordination isomers.
FIG. 17 is a graphical display showing the relative binding curves of Y-DOTA molecules with different sidechain locations. […] Evaluation of the crystal structure seems to indicate that shorter substitutions at this position may bind with higher affinity. Substitutions at other locations may yield reasonably high affinitites as well. The (5-Amino-2-methoxy-phenyl)-carboxymethyl)-DOTA analyzed in this experiment was racemic, so it is not clear which isomer binds with higher affinity. The low pKa of the carboxymethyl proton makes it difficult to prepare a chirally pure molecule.

The test system of the next series is antibody 2D12.5. The series is described as follows: competitive immunoassay (ELISA) of metal-DOTA complexes against immobilized Y-DOTA. Type of series: binding, murine. The settings on record: 37° C., DOTA analog [S]-2-(p-nitrobenzyl)-DOTA. An excerpt:
FIG. 13 is graphical display showing the relative binding of metal-DOTA complexes to antibody 2D12.5. A representative set of competitive binding curves obtained from ELISA experiments described in Example 3 below. Error bars (representing the standard error of the mean) are shown, but are generally smaller than the data points.
Elements plotted in the order Sc (open circle), Lu, Yb, Tm, Er, Ho, Y (open diamond), Dy, Tb, Gd, Eu, Sm, Nd, Pr, Ce, La. ΔΔG values relative to Y-DOTA, set at 0. Error bars represent standard error of the mean.
To determine the metal selectivity of the antibody 2D12.5, a competitive immunoassays was used to measure the binding constants of multiple metal-DOTA complexes relative to Y^3+-DOTA.
We examined the monoclonal antibody 2D12.5, initially developed to bind specifically to Y-DOTA for targeted radiotherapy (see, e.g., Goodwin et al., i Cancer Res. 54: 5937-5946 (1994)), in order to determine the scope of its activity. To assess the metal selectivity of antibody 2D12.5, a competitive immunoassay to measure the binding constants of various metal-DOTA complexes relative to the original Y^3+ complex was developed (FIG. 12). Briefly, 2D12.5 was incubated at 37° C. in the presence of immobilized Y-DOTA and a soluble metal-DOTA competitor. […] Binding was measured by standard methods known to those of skill in the art. […]

The test system of a further series is Janus-DOTA. The settings on record: for Janus-DOTA, a bivalent form of DOTA; cited from earlier work.
For series [1] the following is noted: 24 hours after administration of the bound complex; cited from earlier work.
Series [2] concerns (S) nitrobenzyl-DOTA chelates. The settings on record: for (S) nitrobenzyl-DOTA chelates; cited from earlier work.

`O=C(O)CN1CCN(CC(=O)O)CCN(CC(=O)O)[C@@H](Cc2ccc([N+](=O)[O-])cc2)CN(CC(=O)O)CC1` (single isomer, unassigned) [(S)-isomer]: in the series with 2D12.5, the “relative binding affinity, different sidechain locations” value was “clearly stronger” and the “relative binding affinity, Y-DOTA isomers” value is “preferred isomer for binding”.

Take `O=C(O)CN1CCN(CC(=O)O)CCN(CC(=O)O)C(Cc2ccc([N+](=O)[O-])cc2)CN(CC(=O)O)CC1` (single isomer, unassigned; isomer 2) [(R)-isomer, 2-(4-nitrobenzyl)-DOTA]: in the series with 2D12.5, the “relative binding affinity, Y-DOTA isomers” value is on record as “affinity decreases less than an order of magnitude”.

On to “(5-Amino-2-methoxy-phenyl)-carboxymethyl)-DOTA”, for which the “relative binding affinity, different sidechain locations” value in the series with 2D12.5 is “still sufficiently strong”.

For Gd-DOTA, the “binding strength relative to the original Y^3+ complex (in words)” value in the series on antibody 2D12.5 is recorded as “bind more tightly than the original Y^3+ complex”; in the series on antibody 2D12.5 (listed as Gd^3+), “strongest binders”.

B1: 2D12.5: anti-chelate monoclonal antibody that binds metal chelates of DOTA and similar structures (antibody, listed as Mus musculus, V domains shown)
VH: QVKLQESGPGLVQPSQSLSITCTVSGFSLTDYGVHWVRQSPGKGLEWLGVIWSGGGTAYTAAFISRLNIYKDNSKNQVFFEMNSLQANDTAMYYCARRGSYPYNYFDVWGQGTTVTVSS
VL: QAVVTQESALTTSPGETVTLTCRSSTGAVTTSNYANWVQEKPDHLFTGLIGGNNNRPPGVPARFSGSLIGDKAALTIAGTQTEDEAIYFCALWYSNHWVFGGGTRLTVLG
modifications: murine monoclonal antibody 2D12.5 heavy chain variable domain (VH); murine monoclonal antibody 2D12.5 light chain variable domain (VL)
Take B1: the “binding constant Ks” value (in the series on Janus-DOTA; in series [2]) was “≈ 10^8” throughout. Besides, the “2D12.5 bound to metal chelates present” value in series [1] is 74-96%.
